In US8507448B2, “Human CD154-binding synthetic peptide and uses thereof” (Fresenius Medical Care Deutschland G.m.b.H., priority 2007, dated 2013):

What was measured:
[1] = target: T1, active site of human CD154 (Homo sapiens, UniProt P29965); test: Competition with anti-human CD154 fluorescein-conjugated antibody on J558L cells; type: binding; conditions: -His6 peptides 30 minutes at room temperature, then antibody
T1 construct: expressed in transfected cells; host or cells: J558L murine myeloma cell line transfected with human CD154
T1 sequence (P29965 1-261): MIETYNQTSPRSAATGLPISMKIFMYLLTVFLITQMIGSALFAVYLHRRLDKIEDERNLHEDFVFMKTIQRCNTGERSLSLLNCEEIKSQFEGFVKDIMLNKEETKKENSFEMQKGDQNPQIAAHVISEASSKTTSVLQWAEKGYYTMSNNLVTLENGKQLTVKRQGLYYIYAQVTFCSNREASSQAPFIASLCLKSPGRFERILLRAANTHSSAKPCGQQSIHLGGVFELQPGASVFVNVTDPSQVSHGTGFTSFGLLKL
Protocol: The murine myeloma cells transfected with human CD154, J558L, were incubated with each of the seven anti-CD154 peptides tagged with a 6 histidines tail (-His6), and then with the anti-CD154 fluorescein-conjugated antibody. The ability of the peptides to compete with the anti-CD154 antibody for the binding to the CD154 molecule expressed on the surface of the J558L cells was evaluated by flow cytometry, as the reduction in the fluorescence intensity compared to the positive control represented by cells incubated with the anti-human CD154 fluorescein-conjugated antibody alone. […] The amino acid sequence of the control peptide differs from that of peptide 4.10 in that an arginine residue is replaced with an alanine residue at amino acid position 5.
(§1) The peptides were synthesized and conjugated with biotin (-bio) or with a 6-histidine tail (-his6) so as to enable in vitro and in vivo localization. […] Furthermore, a competition assay between the peptides and an anti-human CD154 fluorescein-conjugated antibody (Serotec) specifically recognizing the active site of CD154 was carried out. The J558L cells were incubated with the his6-peptides for 30 minutes at room temperature and then with anti-human CD154 fluorescein-conjugated antibody for another 30 minutes at room temperature. […] In order to identify the amino acid residues of the amino acid sequence of peptide 4.10 which are essential to the binding to CD154, three different peptides were synthesized, each one carrying a point mutation, which amino acid sequences differ from that of peptide 4.10 by replacement of the amino acid residues at positions 4, 5, 6, respectively, with one alanine residue.

HUVEC [2] = test: rhsCD154-induced HUVEC motility (time-lapse migration); type: cell-based, human
Protocol: Peptide 4.10 (SEQ ID NO: 6), contrary to control peptide 4.10-ala (SEQ ID NO: 8), inhibits the rhsCD154-induced motility of endothelial cells.
It is known that an inflammatory process, once triggered, can be preserved by cells outside the immune system expressing particular receptors or lymphocyte co-stimulatory molecules, such as CD40 and its ligand CD154, such as e.g. endothelial cells from the vascular wall. […] In particular, the cell migration experiments were carried out with HUVEC cells plated on gelatin at a density of 4×10^3 in complete endothelial cell medium in the presence of 20% serum. The following day, the endothelial medium was replaced with low glucose DMEM (Sigma) with a reduced serum concentration (5%), in the presence or absence of rhsCD154 (100 ng/ml).
Furthermore, in order to evaluate the inhibitory effect, rhsCD154 (100 ng/ml) was pre-incubated for 15 minutes at 37° C. with peptide 4.10 (SEQ. ID NO: 6), or with control peptide 4.10-ala (SEQ. ID NO: 8), or with a blocking anti-human CD154 antibody. The flasks were then observed at 10× magnification for a period of 4 hours under a phase contrast inverted microscope equipped with a thermostatic chamber (at about 37° C.). The cells were photographed with a camera connected to the microscope, over the whole length of time of 4 hours at regular intervals of 15 minutes each. The migratory speed of each of the cells was calculated based on the position of the nucleus of each single cell in each single frame, using an image analysis software and, as a result, the average cell migratory speed (1 standard deviation) was calculated for each experimental condition. […] As a further confirmation of the ability of peptide 4.10 to prevent human endothelial CD40 stimulation by rhsCD154 (100 ng/ml), HUVECs (3.5×10^4) were subjected to an in vitro angiogenesis assay. HUVECs were plated on a tumor matrix (Matrigel, BD) capable of promoting the formation of super cellular organization, in a basal RPMI medium supplemented with 5% serum. […]

[3] = target: T2, human CD154 expressed on the surface of J558L cells (Homo sapiens, UniProt P29965); test: Binding of -His6-tagged peptides to J558L CD154+ cells by flow cytometry; conditions: -His6 peptides 60 μM, 30 minutes at room temperature
T2 construct: expressed in transfected cells; host or cells: J558L murine myeloma cell line transfected with human CD154
T2 sequence (P29965 1-261): T1 sequence (P29965 1-261)
Protocol: FIG. 2 represents the binding of the seven peptides obtained from the human CD154-binding clones and tagged with a 6 histidines tail (-His6) to the J558L CD154^+ cells. […] The cells were incubated with each of the -His6-tagged peptides and then with a phycoerythrin-conjugated secondary antibody specific for the -His6 tail. The dotted histogram is the isotopic control, whilst the black line is the binding intensity of the CD154-specific peptides [4.2=4.3=CPSGHTKAC (SEQ ID NO: 1), 4.4=CGTHSSRIC (SEQ ID NO: 2), 4.6=CLGTQNKEC (SEQ ID NO: 3), 4.7=4.12=CTPGKPHSC (SEQ ID NO: 4), 4.8=CKAASANIC (SEQ ID NO: 5), 4.10=CLPTRHMAC (SEQ ID NO: 6) and 4.11=CLSAVHNMC (SEQ ID NO: 7)]. For each experimental condition, 10,000 events were analyzed and the values are the mean and standard deviation of 3 different experiments.
as §1
The mutated peptides were not capable of recognizing human CD154 expressed at the surface of J558L cells (data not shown).
Similar results were obtained with the four modified peptides 4.101, 4.102, 4.103 e 4.104 having the amino acid sequences illustrated in table II.

[4] = test system: CD40 stimulation of peripheral B cells by rhsCD154; test: rhsCD154-induced B cell activation (CD80 and CD86 membrane expression); type: cell-based, human
Protocol: The histograms of 4A show the effect of the anti-CD154 peptides and the control peptide 4.10-ala, on the activation B cells induced by stimulation with a soluble recombinant human CD154 molecule (rhsCD154). B cells were stimulated for 48 hours with rhsCD154 in the absence and in the presence of a blocking anti-human CD154 antibody or one of the seven selected peptides. Peripheral B cell activation was evaluated by flow cytometry, as the membrane expression of the co-stimulatory molecules CD80 and CD86. […] On the contrary, the activation is prevented when rhsCD154 is used in combination with a blocking anti-human CD154 antibody or with peptide 4.10 (SEQ ID NO: 6).
B cells are known to constitutively express the CD40 molecule on the cells membrane (van Kooten C. et al, J. Leukoc. Biol. 2000). Stimulation of CD40 by CD154-expressing activated T cells, results in B cells activation, proliferation and isotype switching. The inventors employed B cells isolated from whole peripheral blood of healthy donors by gradient-Ficoll centrifugation and immunomagnetical separation (MACS systems—Milteniy). The quiescent B cells thereby obtained, were then stimulated with a soluble form of human recombinant CD154 (rhsCD154) to induce activation and expression of the co-stimulatory molecules CD80 (B7-1) and CD86 (B7-2) on the cell membrane. A drastic increase in membrane expression of CD80 and CD86 on the cell surface of peripheral B cells, after stimulation for 48 hours with rhsCD154 (100 ng/ml) was observed. […] In contrast, pre-incubation for 15 minutes at 37° C. of rhsCD154 (100 ng/ml) with peptide 4.10 (SEQ. ID NO: 6), prior to lymphocyte stimulation, blocked B cells stimulation and the related expression of CD80 and CD86. […] The results are the mean±standard deviation of five different experiments. Similar results were also obtained with B cells isolated from human spleen fragments. […] These experiments were carried out on […] naive B cells, obtained from peripheral blood by negative selection, by depletion of mature lymphocytes from the B cell pool by immunomagnetic separation (MACS Systems Milteniy).

HUVEC [5] = test: In vitro angiogenesis: cell cord formation of HUVECs on Matrigel; type: cell-based, human; conditions: pre-incubated with rhsCD154 100 ng/ml for 15 minutes at 37° C.; 4 hours
Description: FIGS. 7B-F show representative images of cell cord formation ability on Matrigel under the various experimental conditions mentioned above (B=unstimulated control; C=rhsCD154; D=rhsCD154+ 4.10 peptide; E=rhsCD154+ 4.10-ala peptide; F=rhsCD154+ blocking anti-CD154 antibody). Peptide 4.10 of the invention (SEQ ID NO: 6), contrary to control peptide 4.10-ala (SEQ ID NO: 8), inhibits the rhsCD154-induced ability of the endothelial cells of forming cell cords.
Furthermore, in order to evaluate the inhibitory effect, rhsCD154 (100 ng/ml) was pre-incubated for 15 minutes at 37° C. with peptide 4.10 (SEQ. ID NO: 6), or with control peptide 4.10-ala (SEQ. ID NO: 8), or with a blocking anti-human CD154 antibody. The flasks were then observed at 10× magnification for a period of 4 hours under a phase contrast inverted microscope equipped with a thermostatic chamber (at about 37° C.). The cells were photographed with a camera connected to the microscope, over the whole length of time of 4 hours at regular intervals of 15 minutes each. The migratory speed of each of the cells was calculated based on the position of the nucleus of each single cell in each single frame, using an image analysis software and, as a result, the average cell migratory speed (1 standard deviation) was calculated for each experimental condition. […] As a further confirmation of the ability of peptide 4.10 to prevent human endothelial CD40 stimulation by rhsCD154 (100 ng/ml), HUVECs (3.5×10^4) were subjected to an in vitro angiogenesis assay. HUVECs were plated on a tumor matrix (Matrigel, BD) capable of promoting the formation of super cellular organization, in a basal RPMI medium supplemented with 5% serum. Upon incubation at 37° C. under 5% CO2 for 4 hours, the cells were observed under a contrast phase inverted microscope.

naive B cells = test: Isotype switching of naive B cells induced by IL-4 and rhsCD154; type: cell-based, human; conditions: IL-4 0.4 ng/ml and rhsCD154 100 ng/ml, 96 hours, no inhibitor
Protocol: The graphics of FIG. 5A show the percentage of naive B cells undergoing isotype switching and expressing IgG, under basal condition with no stimulation, after stimulation for 72 hours with IL4 and CD154, […] anti-human CD154 antibody, […] 4.10 (SEQ ID NO: 6), respectively. Peptide 4.10 (SEQ ID NO: 6), just as the anti-CD154 antibody, is capable of strongly inhibiting the isotype switching of immunoglobulins induced by stimulation with rhsCD154 and IL4.
B cells are known to constitutively express the CD40 molecule on the cells membrane (van Kooten C. et al, J. Leukoc. Biol. 2000). Stimulation of CD40 by CD154-expressing activated T cells, results in B cells activation, proliferation and isotype switching. The inventors employed B cells isolated from whole peripheral blood of healthy donors by gradient-Ficoll centrifugation and immunomagnetical separation (MACS systems—Milteniy). The quiescent B cells thereby obtained, were then stimulated with a soluble form of human recombinant CD154 (rhsCD154) to induce activation and expression of the co-stimulatory molecules CD80 (B7-1) and CD86 (B7-2) on the cell membrane. A drastic increase in membrane expression of CD80 and CD86 on the cell surface of peripheral B cells, after stimulation for 48 hours with rhsCD154 (100 ng/ml) was observed. […]

human platelets = test: Platelet aggregation assay (aggregometer); type: cell-based; conditions: priming 10 minutes at 37° C.; peptide 60 μM with CD154
Protocol: Platelet aggregation was measured with an aggregometer, as the increase in light transmission compared to the control. Priming of human platelets with the anti-human CD154 antibody in combination with rhsCD154 increases platelet aggregation upon stimulation with ADP 0.5 μM.
Finally, one of the major advantages of peptide 4.10 is its lack of reactivity towards human platelets. It is know that in the past, a number of clinical trials carried out to test promising anti-CD154 monoclonal antibodies were suddenly discontinued due to dramatic prothrombotic side effects (Kelsoe G. et al, J. Clin. Invest. 2003). The hypothesis is that the anti-CD154 antibodies had triggered a cross-reaction on the surface of human platelets expressing the receptor for the Fc immunoglobulin fraction (FcR) and, after activation, the CD154 molecule. Thus, the inventors tested the effect of peptide 4.10 on platelets, by a platelet aggregation assay. Such experiments were carried out by the use of a thermostatic aggregometer, equipped with a magnetic stirrer and a real time optical density meter. Platelet aggregation was evaluated as the change in optical density versus the reference sample (blank). The experiments were carried out on platelets extracted from peripheral whole blood of healthy donors collected in tubes containing 5 U/ml heparin. In particular, the platelet enriched plasma (PRP), was obtained by whole blood centrifugation at 900 rpm for 20 minutes, while the platelet poor plasma (PPP), used as the reference sample, was obtained collecting the supernatant after another centrifugation at 3000 rpm for 10 minutes. […] Similar results were obtained inducing platelet aggregation with 0.3 U/ml thrombin.

[6] = rhsCD154 100 ng/ml alone, 48 hours

Row | binding to J558L CD154+ cells [3] | Substance | competition with anti-human CD154 fluorescein-conjugated antibody specific for the active site of CD154 [1] | effect on rhsCD154-induced motility of HUVEC (HUVEC [2]; pre-incubated with rhsCD154 100 ng/ml for 15 minutes at 37° C.) | inhibition of rhsCD154-induced B cell activation (CD80 and CD86 expression) ([4]; 250 μM) | effect on rhsCD154-induced formation of vessel-like cell cords on Matrigel (HUVEC [5]) | increase in the basal motility of cells (HUVEC [2]; rhsCD154 100 ng/ml alone) | cell migratory speed (HUVEC [2]; rhsCD154 100 ng/ml alone, basal lower than 12 μm/h) [μm/h] | increase in membrane expression of CD80 compared to basal levels [4, 6] [%] | increase in membrane expression of CD86 compared to basal levels [4, 6] [%] | increase in the number of B cells expressing membrane IgG (naive B cells) [%] | platelet aggregation induced by ADP 0.5 μM after priming (human platelets)
1 | least reactive | CLPTAHMAC (binding protein) [peptide 4.10-ala, control peptide; arginine at position 5 of peptide 4.10 replaced with alanine, reference compound] | complete inactivation of the peptide's ability to compete | did not affect endothelial CD40 stimulation | neither affected the expression of CD80 and CD86 | did not affect the ability of the cells to form vessel-like cell cords | – | – | – | – | – | –
2 | – | rhsCD154: recombinant soluble form of human CD154, used as the CD40 stimulus [reference compound] | – | – | – | – | about 350% | 42 | 300 | 274 | 25 | did not enhance platelet aggregation
